The source of these data is US6211439A, “Herbicide resistance in plants” (MGI Pharma, Inc, priority 1995, dated 2001).

Assay [1] deals with unselected maize callus tissue. Put plainly: Callus culture growth inhibition, unselected tissue. It is filed as cell-based. Particulars: Zea mays, 336 h, read-out: level giving a 50% growth inhibition. On the procedure: (§1) Therefore the effects of 214 were determined on callus growth. Quantities of tissue averaging 90 mg in size were transferred to nutrient agar maintenance media containing concentrations of 214 ranging from 0.003 to 3 mg per liter. Eight tissue pieces were placed on each plate with three plates per herbicide concentration. After 14 days growth, the tissue was weighed again.

The test system of the next assay is line XA17 tissue. Put plainly: Callus growth inhibition, resistant line XA17. The settings on record: Zea mays, 336 h, read-out: level giving a 50% growth inhibition. It is filed as cell-based, maize. As for the experimental part:
as §1
Initially, the maximum level of 214 in which line XA17 would grow stably was determined. Stock tissue which had been maintained in the presence of 0.1 mg per liter 214 was transferred to media containing 214 levels ranging up to 30 mg per liter. Tissue was maintained for several subculture intervals and the growth rate evaluated.

In another assay the test system is control seedlings. Put plainly: Seedling assay, control (herbicide sensitive) seedlings. It is filed as in vivo, maize. The settings on record: Zea mays, read-out: concentration inhibiting shoot growth 50%. The text has this: Seeds to be used as controls in the heritability assay were obtained from regenerated plants from an herbicide sensitive cell line of the same genetic background as line XA17. These regenerated plants were crossed with pollen obtained from a herbicide sensitive inbred B73 plant grown from seed. Seeds were harvested approximately forty days after pollination.
(§2) Twenty control seeds and ten XA17 seeds were surface sterilized with 2.6% sodium hypochlorite for twenty minutes and then washed with sterile distilled water. The seed was imbibed overnight in sterile water containing a small quantity of the fungicide, captan (N-trichloromethylthio-4-cyclohexene-1,2-dicarboximide). The mature embryos were then excised from the seed and plated scutellum side down on solid MS media without 2,4-D. Ten control seeds were plated on media containing no 214 and ten were plated in the presence of 6×10^-8M 214 which had been incorporated into the medium after autoclaving but before gelling. All ten XA17 seeds were plated in the presence of 6×10^-8 M 214. Seedlings were evaluated seven days after plating.
(§3) XA17 seeds homozygous for the resistance trait were obtained as described in Section 6.4.6. […] Assays were conducted as described in Section 6.4.5.

Assay [2] has as its system XA17 seedlings homozygous for the herbicide resistance trait. Description: Seedling assay, XA17 seedlings homozygous for the resistance trait. It is filed as in vivo, maize. The settings on record: for resistance of XA17 homozygous seedlings: vs control seedlings. On the procedure: as §2, §3
The subject of a further assay is QJ22 seedlings. Put plainly: Seedling assay, QJ22 seedlings homozygous for the resistance trait. It is filed as in vivo, maize. The settings on record: seedling assays. An excerpt:
Plants were regenerated from cell line QJ22 and seed obtained as described previously for XA17, supra. […] Seeds which are uniformly homozygous for the resistance trait were obtained as described for XA17, supra.

Assay [3] deals with AHAS activity of line XA17 tissue. Description: AHAS activity assay, line XA17 tissue. In kind it is biochemical, maize. The settings on record: for IC50: AHAS activity of line XA17 tissue, read-out: concentration inhibiting AHAS activity 50%. As for the experimental part: (§4) Assays were conducted as a modification of the procedure of Smith et al. (1979, Molec. Gen. Genet. 169: 299-314). Plant cell culture material was ground with sand in a cold mortar and pestle in an equal quantity (w/v) of cell disruption media containing 0.05 M potassium phosphate (pH 7.0), 0.1 mM MgSO4, and 0.5 mM dithiothreitol. The preparation was centrifuged at 11,000×g for 20 minutes and the supernatant assayed for AHAS activity. Assays were conducted in 1 ml volumes containing 0.05 M potassium phosphate (pH 8.0), 40 mM pyruvate, 5 mM MgCl2, 0.1 mM thiamine pyrophosphate, 0.2 ml cell extract, and various concentrations of the herbicide of interest. The reaction mixtures were incubated at 30° C. for 75 minutes and the reaction terminated with the addition of 0.1 ml of 50% (v/v) H2 SO4. Following further incubation at 40° C. for 20 minutes, the acetoin formed from acetolactate by acidification was quantitated using the method of Westerfield (1945, J. Biol. Chem. 161: 495). To 0.2 ml of reaction mixture, 0.8 ml of water, 0.5 ml of 0.5% (w/v) creatine, and 0.5 ml of 5% (w/v) naphthol in 10% (w/v) NaOH was added. After mixing, solutions were incubated at room temperature for one hour. The development of pink color was quantitated by measuring light absorbance at 530 nm.
Assays were conducted to determine if acetohydroxyacid synthase extracted from line XA17 tissue was altered with respect to herbicide sensitivity. Such a change would signify that an alteration of this enzyme conferred the herbicide resistance. Assays were conducted as described supra.

The next assay deals with Tomato callus lines. The settings on record: callus cultures initiated from regenerated plants (Thomas and Pratt, 1983); cited from earlier work.
In assay [4] the test system is maize cell suspension cultures. Put plainly: Reversal of herbicide growth inhibition by leucine, valine and isoleucine. In kind it is cell-based. Particulars: 1 mM each of leucine, isoleucine, and valine; cell suspension cultures. As for the experimental part: Growth inhibition studies were carried out in 125 ml flasks containing 30 ml of test media. 997 was filter sterilized and added to cooling media following autoclaving. Test media were innoculated with cells to give a settled cell volume (15 minutes without centrifugation) of 0.2 ml per 10 ml of suspension. After either six or seven days growth settled cell volumes were again quantitated.
Cells were tested to determine whether the herbicide induced inhibition of growth was the result of the decreased availability of the three branched chain amino acids. Cells were exposed to toxic levels of 997 (1×10^-6 M) in media either supplemented with 1 mM concentrations of leucine, valine, and isoleucine or with no supplementation. Culture growth rates in the absence of amino acid supplementation and in the presence of 1×10^-6 M 997 were reduced to 16% that of herbicide free cultures.
Experiments were conducted to determine the optimum supplementation levels of each of the three amino acids to obtain maximum herbicide protection and for gaining insight into the site of action of the compound.

For assay [5], the system named is acetohydroxyacid synthase (AHAS). Description: AHAS activity assay, extract of maize cell cultures / control tissue. In kind it is biochemical. As for the experimental part: as §4, with “Plant” for “Assays were conducted as a modification of the procedure of Smith et al. (1979, Molec. Gen. Genet. 169: 299-314). Plant”, “Following further incubation at 40° C. for 20 minutes, the acetoin formed from acetolactate by acidification was quantitated using the method of Westerfield (1945, J. Biol. Chem. 161: 495).” left out, “hour.” for “hour. The development of pink color was quantitated by measuring light absorbance at 530 nm.”

Assay [6] deals with Callus tissue from line QJ22. Description: Callus growth inhibition, line QJ22. In kind it is cell-based, maize. Particulars: line QJ22 vs control tissue; based on herbicide amount giving 50% reduction in growth rate. On the procedure:
(§5) Callus tissue from line QJ22 was tested also with the compound 567. The numbers represent the fold increase in herbicide concentration that can be tolerated by each of the cell lines as compared to control tissue. The values were calculated based on the amount of herbicide that gave a 50% reduction in growth rate.

The test system of assay [7] is Callus tissue from line UV18. Description: Callus growth inhibition, line UV18. In kind it is cell-based, maize. Particulars: line UV18 vs control tissue; based on herbicide amount giving 50% reduction in growth rate. On the procedure: The UV18 cell line was first observed after 25 weeks of selection comprising 9 subculture intervals. The tissue in the selection procedure had been exposed to 0.1 mg per liter 214 for four subculture intervals followed by exposure to 0.3 mg per liter 214 for four subculture intervals. UV18 was identified during the ninth subculture as a rapidly growing sector of tissue with good morphology.
as §5

Converted amounts (≈) assume the structure as drawn. Read-outs that look alike come from different tables or passages of the source. Where only a bound is given, the exact number is not on record here.

In the case of `Cc1cc(C)n2nc(S(=O)(=O)Nc3c(Cl)cccc3Cl)nc2n1` [compound 567, 5,7-dimethyl-N-(2,6-dichlorophenyl)-1,2,4-triazolo[1,5-a)pyrimidine-2-sulfonamide], the IC50 is 0.1 to 0.3 µg/mL (≈ 0.269 to 0.806 µM) in [1]; over 30 µg/mL in the assay with line XA17 tissue (line XA17, two week growth inhibition study); 0.1 µM in the assay with control seedlings (control seedlings). Moreover, the “shoot growth inhibition at the highest concentration tested” value in assay [2] (3×10^-6 M, seedlings homozygous for the resistance trait) is “no inhibition”. In addition, in assay [2], the “resistance of XA17 homozygous seedlings” value is on record as “at least 30 fold”. Moreover, the “tolerance of QJ22 homozygous seedlings compared to control seedlings” value (shortened to “tolerance … compared to control seedlings”) in the assay with QJ22 seedlings is “no tolerance”.
As to `COc1nc(C)nc(NC(=O)NS(=O)(=O)c2ccccc2Cl)n1` [chlorsulfuron, 2-chloro-N-[(4-methoxy-6-methyl-1,3,5-triazin-2-yl)aminocarbonyl]benzenesulfonamide], the IC50 in assay [1] worked out at 0.01 µg/mL (≈ 0.028 µM); in the assay on line XA17 tissue it was 10 µg/mL (≈ 28 µM); in [3], 0.3 µM; with control seedlings, 0.01 µM; in assay [2] (Zea mays, read-out: concentration inhibiting shoot growth 50%), 0.1 µM. In addition, in [2], the “resistance of XA17 homozygous seedlings” value was 10 fold. Moreover, the “tolerance … compared to control seedlings” value in the assay on QJ22 seedlings is “no tolerance”.
Consider `C[n+]1ccc(-c2cc[n+](C)cc2)cc1` [paraquat], for which the “increase over wild-type in resistance” value in the assay with Tomato callus lines is at least 30 fold.
With `CCc1cnc(C2=NC(=O)C(C)(C(C)C)N2)c(C(=O)O)c1` (stereo not drawn) [compound 499, 5-ethyl,2-(5-isopropyl-5-methyl-4-oxo-2-imidazolin-2-yl)nicotinic acid], the “effect of media supplementation with leucine, isoleucine, valine on growth inhibition” value in assay [4] was “reversed the growth inhibitory effects”. Also, the “effect on AHAS enzyme activity” value in assay [5] (AHAS activity from maize cell cultures) is listed as “inhibited the enzyme activity”. Besides, the IC50 is 1 to 10 µM in [5] (AHAS activity of control tissue, read-out: concentration inhibiting AHAS activity 50%); 0.1 to 0.3 µg/mL (≈ 0.346 to 1.04 µM) in assay [1]; over 30 µg/mL in the assay with line XA17 tissue; 3000 to 30000 µM in [3]. The “change in herbicide sensitivity of AHAS, line XA17 vs control, on a concentration basis” value in assay [3] (maize, ahas, line xa17) is recorded as at least 1000 fold. Besides, the “Callus Growth Fold Increase in Tolerance” value in assay [6] was 30-50 fold; in [7] it was 100 fold. Moreover, the “tolerance … compared to control seedlings” value in the assay with QJ22 seedlings is listed as 30 fold.
